# Laboratory results: ChEMBL document CHEMBL1201862, “PubChem BioAssay data set” (2004)
# Calls of active or inactive are those of the source.
# Columns and labels:
# [1] = target: Polyadenylate-binding protein 1 (Homo sapiens, UniProt P11940); experiment: blockers of PABP interaction with poly(A) – biochemical, fluorescence polarization, […] (AID 2014)
# [2] = target: Eukaryotic translation initiation factor 4H (Homo sapiens, UniProt Q15056); experiment: eIF4H binding inhibition – biochemical, uHTS, fluorescence polarization, translation initiation inhibitor project, primary screen (AID 2012)
# [3] = target: T1, DNA dC->dU-editing enzyme APOBEC-3G (Homo sapiens, UniProt Q9HC16); experiment: Dose Response confirmation of small molecule APOBEC3G DNA Deaminase Inhibitors via a fluorescence-based single-stranded DNA deaminase assay. [Related pubchem assays (depositor defined):AID493012, AID493028]; format: functional
# T1 sequence (Q9HC16 whole entry): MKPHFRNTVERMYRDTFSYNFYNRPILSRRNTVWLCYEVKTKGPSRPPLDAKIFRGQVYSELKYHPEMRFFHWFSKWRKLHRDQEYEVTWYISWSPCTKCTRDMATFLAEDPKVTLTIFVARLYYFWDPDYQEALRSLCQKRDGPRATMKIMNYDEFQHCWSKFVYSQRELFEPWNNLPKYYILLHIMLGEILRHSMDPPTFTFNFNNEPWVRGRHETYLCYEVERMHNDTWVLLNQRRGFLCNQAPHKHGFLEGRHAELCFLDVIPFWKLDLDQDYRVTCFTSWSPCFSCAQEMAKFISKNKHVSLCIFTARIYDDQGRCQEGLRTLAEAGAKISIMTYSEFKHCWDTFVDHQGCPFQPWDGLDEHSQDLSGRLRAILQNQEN
# [4] = target: FAD-linked sulfhydryl oxidase ALR (Homo sapiens, UniProt P55789); experiment: ALR-catalysed DTT oxidation blockers – biochemical, H2O2 detection, luminescence, cherry-pick, dose response (AID 493248)
# FAD-linked sulfhydryl oxidase ALR, sequence (P55789 whole entry): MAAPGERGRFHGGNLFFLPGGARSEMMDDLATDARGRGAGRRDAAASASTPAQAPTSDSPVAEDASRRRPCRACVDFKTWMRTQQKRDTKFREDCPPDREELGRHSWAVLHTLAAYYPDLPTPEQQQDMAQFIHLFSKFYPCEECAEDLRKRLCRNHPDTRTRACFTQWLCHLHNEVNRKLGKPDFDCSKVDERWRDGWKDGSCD
# [5] = target: T2, Short transient receptor potential channel 4 (Mus musculus, UniProt Q9QUQ5); experiment: calcium entry via TRPC4 opening agents – cell-based, HEK293 TRPC4/mu-opioid, Fluo-4 calcium, dose response (AID 434937); format: functional
# T2 sequence (Q9QUQ5 whole entry): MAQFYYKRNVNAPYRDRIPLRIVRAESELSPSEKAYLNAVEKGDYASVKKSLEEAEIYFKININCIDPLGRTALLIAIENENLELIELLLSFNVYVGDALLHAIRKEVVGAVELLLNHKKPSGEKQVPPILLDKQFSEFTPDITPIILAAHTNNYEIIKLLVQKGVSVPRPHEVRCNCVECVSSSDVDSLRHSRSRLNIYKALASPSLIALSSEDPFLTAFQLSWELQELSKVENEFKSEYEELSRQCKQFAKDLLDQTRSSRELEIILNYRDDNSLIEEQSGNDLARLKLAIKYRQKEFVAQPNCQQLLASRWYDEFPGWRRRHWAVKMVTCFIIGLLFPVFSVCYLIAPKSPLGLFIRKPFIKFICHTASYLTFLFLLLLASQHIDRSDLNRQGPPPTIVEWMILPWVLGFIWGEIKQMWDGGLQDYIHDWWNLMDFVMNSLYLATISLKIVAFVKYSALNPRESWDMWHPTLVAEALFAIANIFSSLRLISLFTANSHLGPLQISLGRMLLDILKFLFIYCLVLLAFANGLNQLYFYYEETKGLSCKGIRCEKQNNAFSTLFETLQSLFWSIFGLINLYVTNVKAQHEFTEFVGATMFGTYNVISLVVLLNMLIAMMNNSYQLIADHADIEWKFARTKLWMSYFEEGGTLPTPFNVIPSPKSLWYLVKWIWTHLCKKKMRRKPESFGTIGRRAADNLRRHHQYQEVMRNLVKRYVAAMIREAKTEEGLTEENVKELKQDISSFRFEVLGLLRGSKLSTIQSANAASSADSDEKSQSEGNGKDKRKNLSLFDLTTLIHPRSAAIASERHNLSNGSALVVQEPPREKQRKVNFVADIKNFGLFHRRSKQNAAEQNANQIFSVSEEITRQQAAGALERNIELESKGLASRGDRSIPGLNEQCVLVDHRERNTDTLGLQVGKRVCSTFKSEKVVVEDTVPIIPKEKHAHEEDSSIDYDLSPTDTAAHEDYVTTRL
# [6] = target: G-protein coupled receptor 55 (Homo sapiens, UniProt Q9Y2T6); experiment: selective activators of receptor GPR55 – imaging, U2OS cells, beta-arrestin-GFP redistribution, primary screen (AID 1961); format: functional
# G-protein coupled receptor 55, sequence (Q9Y2T6 whole entry): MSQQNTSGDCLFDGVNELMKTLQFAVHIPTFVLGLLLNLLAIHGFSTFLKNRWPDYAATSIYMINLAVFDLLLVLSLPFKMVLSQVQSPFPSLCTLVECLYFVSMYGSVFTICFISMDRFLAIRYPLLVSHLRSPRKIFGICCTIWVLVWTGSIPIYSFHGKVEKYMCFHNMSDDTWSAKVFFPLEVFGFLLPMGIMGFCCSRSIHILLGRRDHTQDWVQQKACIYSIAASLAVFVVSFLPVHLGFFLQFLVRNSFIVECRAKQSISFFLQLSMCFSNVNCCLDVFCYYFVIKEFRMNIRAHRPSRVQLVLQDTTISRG
# Protein RecA = target: T3, Protein RecA (Mycobacterium tuberculosis, UniProt P9WHJ3); experiment: Fluorescence Cell-Free Homogeneous Dose Retest to Identify Inhibitors of RecA-Intein Splicing Activity. [Related pubchem assays (depositor defined):AID2097, AID2223, AID489010, AID492950]; format: functional
# T3 sequence (P9WHJ3 whole entry): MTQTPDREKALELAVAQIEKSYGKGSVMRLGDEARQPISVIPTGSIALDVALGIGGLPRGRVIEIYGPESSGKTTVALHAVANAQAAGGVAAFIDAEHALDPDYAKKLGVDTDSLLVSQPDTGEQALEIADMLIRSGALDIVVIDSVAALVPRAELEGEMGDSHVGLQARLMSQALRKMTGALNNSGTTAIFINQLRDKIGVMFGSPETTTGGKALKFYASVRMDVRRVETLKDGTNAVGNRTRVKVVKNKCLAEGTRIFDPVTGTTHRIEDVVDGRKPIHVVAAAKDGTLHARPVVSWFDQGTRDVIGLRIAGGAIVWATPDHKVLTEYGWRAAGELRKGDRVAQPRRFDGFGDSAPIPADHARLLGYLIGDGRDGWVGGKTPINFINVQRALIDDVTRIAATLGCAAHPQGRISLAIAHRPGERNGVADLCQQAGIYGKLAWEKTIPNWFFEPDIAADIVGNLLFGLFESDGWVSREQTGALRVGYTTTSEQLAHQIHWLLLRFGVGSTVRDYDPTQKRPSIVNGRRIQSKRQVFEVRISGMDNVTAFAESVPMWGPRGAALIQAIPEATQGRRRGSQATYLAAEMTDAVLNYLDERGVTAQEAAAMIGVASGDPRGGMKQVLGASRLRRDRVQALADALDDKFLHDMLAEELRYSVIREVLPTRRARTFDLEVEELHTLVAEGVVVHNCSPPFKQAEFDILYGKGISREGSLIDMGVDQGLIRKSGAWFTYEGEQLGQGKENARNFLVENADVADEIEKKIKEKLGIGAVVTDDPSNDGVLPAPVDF
# [7] = target: Glucose-6-phosphate 1-dehydrogenase (Homo sapiens, UniProt P11413); experiment: inhibition of Homo sapiens G6PD, dose series – biochemical, fluorescence, selectivity assay for P. falciparum G6PD inhibitor project, dose response (AID 504792); format: functional
# Glucose-6-phosphate 1-dehydrogenase, sequence (P11413 whole entry): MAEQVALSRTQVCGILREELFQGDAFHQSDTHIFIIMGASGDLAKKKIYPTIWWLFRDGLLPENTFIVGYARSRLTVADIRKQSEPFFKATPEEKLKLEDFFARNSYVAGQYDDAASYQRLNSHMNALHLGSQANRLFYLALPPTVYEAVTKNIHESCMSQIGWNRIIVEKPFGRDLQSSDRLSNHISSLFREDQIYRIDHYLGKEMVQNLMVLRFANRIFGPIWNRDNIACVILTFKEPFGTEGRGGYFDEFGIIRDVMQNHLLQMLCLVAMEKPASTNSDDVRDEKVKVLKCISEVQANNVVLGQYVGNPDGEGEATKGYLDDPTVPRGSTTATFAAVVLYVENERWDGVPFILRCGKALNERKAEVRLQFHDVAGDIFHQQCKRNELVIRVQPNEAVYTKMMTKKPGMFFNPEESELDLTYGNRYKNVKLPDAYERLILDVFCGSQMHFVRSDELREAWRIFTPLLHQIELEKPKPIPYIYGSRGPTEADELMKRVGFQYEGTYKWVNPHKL
# [8] = target: T4, Replicative DNA helicase DnaB (Mycobacterium tuberculosis, UniProt P9WMR3); experiment: DnaB intein splicing inhibitors, dose response, biochemical, cell-free fluorescence (AID 449749); format: functional
# T4 sequence (P9WMR3 whole entry): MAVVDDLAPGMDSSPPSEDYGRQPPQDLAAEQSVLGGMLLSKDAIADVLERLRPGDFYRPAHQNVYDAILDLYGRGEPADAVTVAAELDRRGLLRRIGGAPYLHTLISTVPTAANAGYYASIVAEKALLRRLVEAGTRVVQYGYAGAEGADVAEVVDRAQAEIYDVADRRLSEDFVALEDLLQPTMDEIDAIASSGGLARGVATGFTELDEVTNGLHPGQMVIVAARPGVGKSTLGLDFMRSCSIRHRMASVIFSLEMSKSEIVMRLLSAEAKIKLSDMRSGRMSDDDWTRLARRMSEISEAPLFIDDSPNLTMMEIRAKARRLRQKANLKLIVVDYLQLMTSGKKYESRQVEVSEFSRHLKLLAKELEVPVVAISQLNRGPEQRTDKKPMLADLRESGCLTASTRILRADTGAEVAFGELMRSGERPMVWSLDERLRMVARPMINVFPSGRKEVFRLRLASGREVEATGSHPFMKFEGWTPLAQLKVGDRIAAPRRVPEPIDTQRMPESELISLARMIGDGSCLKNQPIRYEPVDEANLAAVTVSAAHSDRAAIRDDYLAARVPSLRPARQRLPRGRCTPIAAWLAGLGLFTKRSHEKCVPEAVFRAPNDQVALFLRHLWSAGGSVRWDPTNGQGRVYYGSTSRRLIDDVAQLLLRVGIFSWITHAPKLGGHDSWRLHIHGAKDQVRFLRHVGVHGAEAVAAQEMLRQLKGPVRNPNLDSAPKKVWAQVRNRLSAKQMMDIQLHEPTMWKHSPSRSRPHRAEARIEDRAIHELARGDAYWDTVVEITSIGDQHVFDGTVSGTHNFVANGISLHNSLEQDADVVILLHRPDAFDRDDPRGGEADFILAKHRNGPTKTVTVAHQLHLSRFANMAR
# Large T antigen = Large T antigen (Simian virus 40, UniProt P03070); format: functional, Betapolyomavirus macacae;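 further: Confirmatory-stage PubChem screen for compounds that inhibit SV40 T antigen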
# Large T antigen, sequence (P03070 whole entry): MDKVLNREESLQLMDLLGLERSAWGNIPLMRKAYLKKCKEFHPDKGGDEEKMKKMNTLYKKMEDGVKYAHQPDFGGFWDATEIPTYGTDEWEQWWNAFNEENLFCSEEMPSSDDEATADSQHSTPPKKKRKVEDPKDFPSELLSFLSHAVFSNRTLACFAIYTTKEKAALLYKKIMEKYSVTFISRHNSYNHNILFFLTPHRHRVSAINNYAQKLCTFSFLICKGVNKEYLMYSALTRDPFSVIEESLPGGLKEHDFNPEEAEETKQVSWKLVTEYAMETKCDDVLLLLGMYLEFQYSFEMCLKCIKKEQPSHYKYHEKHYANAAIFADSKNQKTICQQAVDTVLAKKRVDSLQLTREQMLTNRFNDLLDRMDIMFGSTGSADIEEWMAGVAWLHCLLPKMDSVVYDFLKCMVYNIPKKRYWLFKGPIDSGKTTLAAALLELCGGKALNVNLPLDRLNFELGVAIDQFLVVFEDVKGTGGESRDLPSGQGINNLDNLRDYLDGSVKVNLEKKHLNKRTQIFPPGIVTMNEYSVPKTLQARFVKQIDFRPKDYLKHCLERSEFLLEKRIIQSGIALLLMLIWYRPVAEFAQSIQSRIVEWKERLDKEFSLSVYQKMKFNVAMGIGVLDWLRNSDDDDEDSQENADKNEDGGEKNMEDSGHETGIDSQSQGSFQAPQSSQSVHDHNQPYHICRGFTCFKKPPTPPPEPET
# [9] = target: T1, DNA dC->dU-editing enzyme APOBEC-3G; format: functional
# [10] = target: DNA dC->dU-editing enzyme APOBEC-3A (Homo sapiens, UniProt P31941); experiment: Dose Response confirmation of small molecule APOBEC3A DNA Deaminase Inhibitors via a fluorescence-based single-stranded DNA deaminase assay. [Related pubchem assays (depositor defined):AID493011, AID493024]; format: functional
# DNA dC->dU-editing enzyme APOBEC-3A, sequence (P31941 whole entry): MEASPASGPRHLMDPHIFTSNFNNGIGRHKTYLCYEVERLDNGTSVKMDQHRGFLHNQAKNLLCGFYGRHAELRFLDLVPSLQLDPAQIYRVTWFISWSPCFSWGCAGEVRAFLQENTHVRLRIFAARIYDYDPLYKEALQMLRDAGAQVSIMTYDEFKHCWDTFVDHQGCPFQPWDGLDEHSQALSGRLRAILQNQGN
# Aminopeptidase N = target: T5, Aminopeptidase N (Plasmodium falciparum FcB1/Columbia, UniProt O96935); experiment: malaria alanyl aminopeptidase activity blockers – biochemical, fluorogenic H-Leu-NHMec substrate, 1536-well (AID 1445); set-up: species or system Plasmodium falciparum 3D7, 3D7
# T5 sequence (O96935 whole entry): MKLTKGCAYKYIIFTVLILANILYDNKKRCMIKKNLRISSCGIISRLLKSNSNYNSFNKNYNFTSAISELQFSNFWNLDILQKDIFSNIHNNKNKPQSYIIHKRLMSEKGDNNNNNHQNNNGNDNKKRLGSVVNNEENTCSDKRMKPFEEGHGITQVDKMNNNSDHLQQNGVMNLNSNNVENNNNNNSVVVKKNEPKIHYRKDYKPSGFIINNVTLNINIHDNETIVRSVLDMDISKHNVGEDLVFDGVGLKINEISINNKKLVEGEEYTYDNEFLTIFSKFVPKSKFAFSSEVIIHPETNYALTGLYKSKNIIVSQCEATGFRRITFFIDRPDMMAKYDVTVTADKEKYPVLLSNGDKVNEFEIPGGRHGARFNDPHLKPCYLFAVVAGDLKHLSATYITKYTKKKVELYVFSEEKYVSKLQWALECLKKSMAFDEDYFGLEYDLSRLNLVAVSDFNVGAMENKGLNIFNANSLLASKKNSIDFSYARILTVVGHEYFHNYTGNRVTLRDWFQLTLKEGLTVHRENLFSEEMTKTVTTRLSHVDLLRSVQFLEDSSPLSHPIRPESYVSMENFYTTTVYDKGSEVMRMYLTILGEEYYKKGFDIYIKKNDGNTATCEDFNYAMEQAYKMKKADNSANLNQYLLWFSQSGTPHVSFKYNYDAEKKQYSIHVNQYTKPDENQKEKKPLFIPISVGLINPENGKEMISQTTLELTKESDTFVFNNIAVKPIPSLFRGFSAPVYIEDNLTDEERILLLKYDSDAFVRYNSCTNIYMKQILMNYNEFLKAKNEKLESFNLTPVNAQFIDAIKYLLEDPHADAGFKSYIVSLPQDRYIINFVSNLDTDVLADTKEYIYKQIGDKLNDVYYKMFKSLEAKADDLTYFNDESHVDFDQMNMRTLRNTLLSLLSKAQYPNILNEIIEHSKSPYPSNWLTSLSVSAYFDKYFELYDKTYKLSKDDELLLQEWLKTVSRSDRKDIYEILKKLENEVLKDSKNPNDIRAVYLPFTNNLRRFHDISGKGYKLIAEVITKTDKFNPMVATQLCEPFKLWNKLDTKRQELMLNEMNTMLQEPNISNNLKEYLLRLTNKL
# [11] = viability of uninfected HEp-2 cells – cell-based, HTS, cytotoxicity control for RSV inhibitor project, dose response (AID 2410); format: functional; details: human respiratory syncytial virus
# Polyadenylate-binding protein 1, sequence (P11940 whole entry): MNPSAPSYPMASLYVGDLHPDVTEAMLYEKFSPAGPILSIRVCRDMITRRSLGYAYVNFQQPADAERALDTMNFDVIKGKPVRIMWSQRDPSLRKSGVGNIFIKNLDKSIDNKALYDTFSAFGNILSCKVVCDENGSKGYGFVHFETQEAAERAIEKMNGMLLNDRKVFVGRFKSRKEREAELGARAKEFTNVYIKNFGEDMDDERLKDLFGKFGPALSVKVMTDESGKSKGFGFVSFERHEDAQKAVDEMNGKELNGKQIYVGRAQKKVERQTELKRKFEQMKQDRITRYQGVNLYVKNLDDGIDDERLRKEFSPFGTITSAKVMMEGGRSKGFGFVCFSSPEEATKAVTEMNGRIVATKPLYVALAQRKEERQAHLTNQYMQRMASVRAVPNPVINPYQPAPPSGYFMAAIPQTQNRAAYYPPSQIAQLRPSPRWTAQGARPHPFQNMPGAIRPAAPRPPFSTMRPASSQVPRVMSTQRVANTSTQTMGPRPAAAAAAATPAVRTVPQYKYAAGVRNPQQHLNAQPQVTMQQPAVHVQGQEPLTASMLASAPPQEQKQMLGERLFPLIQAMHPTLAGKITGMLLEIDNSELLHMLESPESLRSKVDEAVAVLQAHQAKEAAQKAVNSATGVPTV
compound,measurement,setting,value
CCN1C(=NCC(C)C)N[C@@H](c2cccc(F)c2)C(C(=O)OC)=C1C,IC50,[1],5.33 µM (active)
same,IC50,[2],> 100 µM (inactive)
O=S(=O)(Nc1ccc(O)c(NS(=O)(=O)c2ccccc2)c1)c1ccccc1,IC50,[3],55.1 µM (active)
same,AC50,[4],1.23 µM (active)
Cc1cc(=O)n2nc(-c3ccccc3)sc2c1C#N,IC50,[3],39.2 µM (active)
CCn1c(N2CCN(S(=O)(=O)CC)CC2)nc2ccccc21,EC50,[5],2.66 µM (active)
COc1ccc(C(=O)NC(=S)NCc2ccc(-c3nc4ccccc4o3)cc2)cc1OC,EC50,[6],> 32 µM (inactive)
CC1(C)Nc2ccc(O)cc2-c2c1ssc2=S,EC50,Protein RecA,998 nM (active)
same,IC50,[7],> 80 µM (inactive)
same,AC50,[8],9 µM (active)
same,IC50,Large T antigen,> 100 µM (active)
CCN1C(NCCOC)=N[C@@H](CCc2ccccc2)[C@H](C(=O)OC)[C@H]1C,IC50,[9],4.15 µM (active)
same,IC50,[1],8.16 µM (active)
same,IC50,[2],> 100 µM (inactive)
same,IC50,[10],3.39 µM (active)
O=C(NCCNC1CCC(c2ccccc2)CC1)c1cccs1 (centres undefined),EC50,[5],0.335 µM (active)
O=C(NCc1ccccc1)C1CCN(S(=O)(=O)c2cccc3cccnc23)CC1,IC50,Aminopeptidase N,42.1 µM (active)
Cc1nnc(SCC(=O)c2cc(C)n(-c3ccc4c(c3)OCO4)c2C)s1,IC50,[7],> 80 µM (inactive)
CC(CCc1ccccc1)NC(=O)C(Cc1ccccc1)NS(=O)(=O)c1cccs1 (centres undefined),IC50,Aminopeptidase N,71.4 µM (active)
CN(C)c1cccc2c1c(NC(=O)c1ccc(F)cc1)nn2C,IC50,[7],> 80 µM (inactive)
CCOCCCn1c(S)nnc1-c1ccc(Cl)cc1,IC50,[3],13.8 µM (active)
C[N+]1(C)C2CCC1CC(OC(=O)c1ccccc1)C2 (centres undefined),IC50,[9],1.75 µM (active)
same,IC50,[10],2.96 µM (active)
COC(=O)C1=C(C)N(Cc2ccccc2)C(NCCCOC(C)C)=N[C@H]1c1ccccc1,IC50,[9],5.12 µM (active)
same,IC50,[10],3.37 µM (active)
CCOc1ccccc1/N=C1/SCCCN1C,IC50,[1],4.4 µM (active)
same,IC50,[2],> 100 µM (inactive)
CCOc1cc(C2Nc3cccc4cccc(c34)N2)ccc1O,CC50,[11],20.2 µM (active)
same,EC50,[6],8.01 µM (active)
